We go through 29 compounds from US9290453B2 (Merck Sharp & Dohme Corp., priority 2010, dated 2016).

Structures are written as SMILES.

The target in the first test is T1, hCRTH2 (Homo sapiens, UniProt Q9Y5Y4).
T1 construct: expressed in transfected cells; host or cells: HEK (human embryonic kidney) cells expressing hCRTH2
T1 sequence (Q9Y5Y4 1-395): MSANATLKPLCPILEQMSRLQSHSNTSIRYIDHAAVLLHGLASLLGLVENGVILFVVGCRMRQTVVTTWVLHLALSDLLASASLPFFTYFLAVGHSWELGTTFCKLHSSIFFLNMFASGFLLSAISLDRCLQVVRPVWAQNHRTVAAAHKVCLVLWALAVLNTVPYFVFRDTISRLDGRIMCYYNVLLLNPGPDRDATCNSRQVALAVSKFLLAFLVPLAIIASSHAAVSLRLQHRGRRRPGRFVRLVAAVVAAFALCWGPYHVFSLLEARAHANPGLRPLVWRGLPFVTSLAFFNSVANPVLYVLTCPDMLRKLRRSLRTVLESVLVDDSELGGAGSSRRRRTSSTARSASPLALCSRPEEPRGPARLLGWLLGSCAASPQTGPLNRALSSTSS
The test can be described thus: Radioligand Binding Assay B (scintillation proximity assay, [3H]-PGD2, HEK-hCRTH2 membranes). The conditions noted are these: Radioligand Binding Assay B (SPA), values in text. The method, then: Radioligand binding also was performed using scintillation proximity assay (SPA) technology in a similar way as described above in Radioligand Binding Assay A with minor modification. Assays were done at room temperature in 10 mM HEPES pH 7.4, 1 mM EDTA containing 2 mM MnCl2 and 16 nM [^3H]-PGD2 (PerkinElmer, Waltham, Mass.) (164 Ci mmol^−1), in a final volume of 0.05 mL. Competing ligands were diluted in dimethylsulfoxide (Me2SO) and added using very low volumes (50 nL). The reaction was initiated by the addition of a mixture of 3.52 μg of membrane protein prepared from a human embryonic kidney (HEK)-hCRTH2 cell line adhered to 140 ug of wheatgerm agglutinin SPA beads (PerkinElmer). Total and non-specific binding were determined in the absence and the presence of 10 μM of a CRTH2 antagonist, respectively. The reaction was routinely conducted for 60 min at room temperature followed by centrifugation for 5 minutes at 1000 RPM. The radioactivity was measured with a TopCountNXT (PerkinElmer). Results determined using the SPA-based assay were similar to those from the filtration binding assay.
The compound `Cc1ccccc1N1CCN(C(=O)c2ccc3nc(-c4ccc(F)cc4)c(CCCCC(=O)O)cc3c2)CC1` [Compound 5AT, 5-(2-(4-fluorophenyl)-6-(4-(o-tolyl)piperazine-1-carbonyl)quinolin-3-yl)pentanoic acid] gave a Ki of 7.2 nM.

For the compound `CC1(C)CC(NC(=O)c2ccc3nc(-c4ccc(Cl)cc4)c(CCCCC(=O)O)cc3c2)c2ccccc2O1` (stereo not shown) [Compound 5BH, 5-(2-(4-chlorophenyl)-6-((2,2-dimethylchroman-4-yl)carbamoyl)quinolin-3-yl)pentanoic acid], the affinity corresponds to a Ki of 27.3 nM.

The test is the same for the next values; noted with them: Table B, Radioligand Binding Assay B (SPA), rated A-D.
The compound `O=C(O)CCCCc1cc2cc(C(=O)NC3CC(=O)Nc4ccccc43)ccc2nc1-c1ccc(F)cc1` (stereo not shown) [Compound 5AL, 5-(2-(4-fluorophenyl)-6-((2-oxo-1,2,3,4-tetrahydroquinolin-4-yl)carbamoyl)quinolin-3-yl)pentanoic acid] returned a Ki of 2.1 to 20 nM.

Take `O=C(O)CCCCc1cc2cc(C(=O)N3CC(c4ccccc4)C3)ccc2nc1-c1ccc(F)cc1` [Compound 5AM, 5-(2-(4-fluorophenyl)-6-(3-phenylazetidine-1-carbonyl)quinolin-3-yl)pentanoic acid]: the Ki was 2.1 to 20 nM.

Compound `O=C(O)CCCCc1cc2cc(C(=O)NCc3ccccc3)ccc2nc1-c1ccc(F)cc1` [Compound 5AN, 5-(6-(benzylcarbamoyl)-2-(4-fluorophenyl)quinolin-3-yl)pentanoic acid] returned a Ki of 20.1 to 200 nM.

As to `COc1ccccc1C1CCN(C(=O)c2ccc3nc(-c4ccc(F)cc4)c(CCCCC(=O)O)cc3c2)CC1` [Compound 5AP, 5-(2-(4-fluorophenyl)-6-(4-(2-methoxyphenyl)piperidine-1-carbonyl)quinolin-3-yl)pentanoic acid], the inhibition constant Ki lay in the range of 2.1 to 20 nM.

Turning to `O=C(O)CCCCc1cc2cc(C(=O)N3CCC4(CC3)OCc3ccccc34)ccc2nc1-c1ccc(F)cc1` [Compound 5AQ, 5-(2-(4-fluorophenyl)-6-(3H-spiro[isobenzofuran-1,4′-piperidin]-1′-ylcarbonyl)quinolin-3-yl)pentanoic acid], the Ki was in the range of 2.1 to 20 nM.

`O=C(O)CCCCc1cc2cc(C(=O)N3CCN(c4ccccc4C(F)(F)F)CC3)ccc2nc1-c1ccc(F)cc1` [Compound 5AR, 5-(2-(4-fluorophenyl)-6-(4-(2-(trifluoromethyl)phenyl)piperazine-1-carbonyl)quinolin-3-yl)pentanoic acid] registered a Ki of 2.1 to 20 nM.

The compound `O=C(O)CCCCc1cc2cc(C(=O)N3CCN(c4ccccc4Cl)CC3)ccc2nc1-c1ccc(F)cc1` [Compound 5AS, 5-(6-(4-(2-chlorophenyl)piperazine-1-carbonyl)-2-(4-fluorophenyl)quinolin-3-yl)pentanoic acid] registered an inhibition constant (Ki) of 2.1 to 20 nM.

`Cc1ccccc1N1CCN(C(=O)c2ccc3nc(-c4ccc(F)cc4)c(CCCCC(=O)O)cc3c2)CC1` [Compound 5AT, 5-(2-(4-fluorophenyl)-6-(4-(o-tolyl)piperazine-1-carbonyl)quinolin-3-yl)pentanoic acid] gave an inhibition constant (Ki) of 2.1 to 20 nM.

On to `Cc1cccc(N2CCN(C(=O)c3ccc4nc(-c5ccc(F)cc5)c(CCCCC(=O)O)cc4c3)CC2)c1` [Compound 5AU, 5-(2-(4-fluorophenyl)-6-(4-(m-tolyl)piperazine-1-carbonyl)quinolin-3-yl)pentanoic acid], for which the Ki fell in the range of 2.1 to 20 nM.

`COc1ccc(N2CCN(C(=O)c3ccc4nc(-c5ccc(F)cc5)c(CCCCC(=O)O)cc4c3)CC2)cc1` [Compound 5AV, 5-(2-(4-fluorophenyl)-6-(4-(4-methoxyphenyl)piperazine-1-carbonyl)quinolin-3-yl)pentanoic acid] gave an inhibition constant (Ki) of 2.1 to 20 nM.

Consider `Cc1ccc(N2CCN(C(=O)c3ccc4nc(-c5ccc(F)cc5)c(CCCCC(=O)O)cc4c3)CC2)cc1` [Compound 5AW, 5-(2-(4-fluorophenyl)-6-(4-(p-tolyl)piperazine-1-carbonyl)quinolin-3-yl)pentanoic acid], for which the Ki was 2.1 to 20 nM.

Turning to `O=C(O)CCCCc1cc2cc(C(=O)N3CCN(c4ccc(F)cc4)CC3)ccc2nc1-c1ccc(F)cc1` [Compound 5AX, 5-(2-(4-fluorophenyl)-6-(4-(4-fluorophenyl)piperazine-1-carbonyl)quinolin-3-yl)pentanoic acid], the Ki was 2.1 to 20 nM.

Compound `O=C(O)CCCCc1cc2cc(C(=O)N[C@@H]3CCCc4cc(F)ccc43)ccc2nc1-c1ccc(Cl)cc1` [Compound 5AY, (R)-5-(2-(4-chlorophenyl)-6-((6-fluoro-1,2,3,4-tetrahydronaphthalen-1-yl)carbamoyl)quinolin-3-yl)pentanoic acid] gave a Ki of 2.1 to 20 nM.

Regarding `O=C(O)CCCCc1cc2cc(C(=O)N[C@@H]3CCCc4ccccc43)ccc2nc1-c1ccc(Cl)cc1` [Compound 5AZ, (R)-5-(2-(4-chlorophenyl)-6-((1,2,3,4-tetrahydronaphthalen-1-yl)carbamoyl)quinolin-3-yl)pentanoic acid], the Ki lay in the range of 2.1 to 20 nM.

For the compound `CN(Cc1ccc(F)cc1)C(=O)c1ccc2nc(-c3ccc(F)cc3)c(CCCCC(=O)O)cc2c1` [Compound 5Ai, 5-(6-((4-fluorobenzyl)(methyl)carbamoyl)-2-(4-fluorophenyl)quinolin-3-yl)pentanoic acid], the Ki lay in the range of 2.1 to 20 nM.

In turn, `N#Cc1ccccc1N1CCN(C(=O)c2ccc3nc(-c4ccc(F)cc4)c(CCCCC(=O)O)cc3c2)CC1` [Compound 5Ao, 5-(6-(4-(2-cyanophenyl)piperazine-1-carbonyl)-2-(4-fluorophenyl)quinolin-3-yl)pentanoic acid] displayed a Ki of 2.1 to 20 nM.

`O=C(O)CCCCc1cc2cc(C(=O)N[C@@H]3CCOc4ccccc43)ccc2nc1-c1ccc(Cl)cc1` [Compound 5BA, (R)-5-(2-(4-chlorophenyl)-6-(chroman-4-ylcarbamoyl)quinolin-3-yl)pentanoic acid] yielded an inhibition constant Ki of 2.1 to 20 nM.

Turning to `O=C(O)CCCCc1cc2cc(C(=O)N[C@@H]3COc4ccccc43)ccc2nc1-c1ccc(Cl)cc1` [Compound 5BB, (S)-5-(2-(4-chlorophenyl)-6-((2,3-dihydrobenzofuran-3-yl)carbamoyl)quinolin-3-yl)pentanoic acid], the Ki is 2.1 to 20 nM.

Consider `C[C@@H](NC(=O)c1ccc2nc(-c3ccc(Cl)cc3)c(CCCCC(=O)O)cc2c1)c1ccc(F)cc1` [Compound 5BC, (R)-5-(2-(4-chlorophenyl)-6-((1-(4-fluorophenyl)ethyl)carbamoyl)quinolin-3-yl)pentanoic acid], for which the Ki was 2.1 to 20 nM.

In turn, `O=C(O)CCCCc1cc2cc(C(=O)N3CCN(c4ccccc4)CC3)ccc2nc1-c1ccc(Cl)cc1` [Compound 5BD, 5-(2-(4-chlorophenyl)-6-(4-phenylpiperazine-1-carbonyl)quinolin-3-yl)pentanoic acid] had an inhibition constant (Ki) of 2.1 to 20 nM.

Compound `O=C(O)CCCCc1cc2cc(C(=O)N3CC(c4cccc(F)c4)C3)ccc2nc1-c1ccc(Cl)cc1` [Compound 5BE, 5-(2-(4-chlorophenyl)-6-(3-(3-fluorophenyl)azetidine-1-carbonyl)quinolin-3-yl)pentanoic acid] came in with an inhibition constant (Ki) of 2.1 to 20 nM.

The compound `O=C(O)CCCCc1cc2cc(C(=O)N3CC[C@@H](c4ccccc4)C3)ccc2nc1-c1ccc(Cl)cc1` [Compound 5BF, (S)-5-(2-(4-chlorophenyl)-6-(3-phenylpyrrolidine-1-carbonyl)quinolin-3-yl)pentanoic acid] displayed a Ki of 2.1 to 20 nM.

`CN(Cc1ccc(F)cc1)C(=O)c1ccc2nc(-c3ccc(Cl)cc3)c(CCCCC(=O)O)cc2c1` [Compound 5BG, 5-(2-(4-chlorophenyl)-6-((4-fluorobenzyl)(methyl)carbamoyl)quinolin-3-yl)pentanoic acid]: the inhibition constant (Ki) was in the range of 2.1 to 20 nM.

For the compound `CC1(C)CC(NC(=O)c2ccc3nc(-c4ccc(Cl)cc4)c(CCCCC(=O)O)cc3c2)c2ccccc2O1` (stereo not shown) [Compound 5BH, 5-(2-(4-chlorophenyl)-6-((2,2-dimethylchroman-4-yl)carbamoyl)quinolin-3-yl)pentanoic acid], the Ki fell in the range of 20.1 to 200 nM.

`O=C(O)CCCCc1cc2cc(C(=O)NC3CC(=O)Nc4ccccc43)ccc2nc1-c1ccc(Cl)cc1` (stereo not shown) [Compound 5BJ, 5-(2-(4-chlorophenyl)-6-((2-oxo-1,2,3,4-tetrahydroquinolin-4-yl)carbamoyl)quinolin-3-yl)pentanoic acid] returned an inhibitory constant (Ki) of 2.1 to 20 nM.

`O=C(O)CCCCc1cc2cc(C(=O)N3CC(c4ccccc4)C3)ccc2nc1-c1ccc(Cl)cc1` [Compound 5BK, 5-(2-(4-chlorophenyl)-6-(3-phenylazetidine-1-carbonyl)quinolin-3-yl)pentanoic acid]: the Ki lay within 2.1 to 20 nM.

Consider `O=C(O)CCCCc1cc2cc(C(=O)NCc3ccccc3)ccc2nc1-c1ccc(Cl)cc1` [Compound 5BL, 5-(6-(benzylcarbamoyl)-2-(4-chlorophenyl)quinolin-3-yl)pentanoic acid], for which the Ki lay in the range of 2.1 to 20 nM.

For the compound `N#Cc1ccccc1N1CCN(C(=O)c2ccc3nc(-c4ccc(Cl)cc4)c(CCCCC(=O)O)cc3c2)CC1` [Compound 5BM, 5-(2-(4-chlorophenyl)-6-(4-(2-cyanophenyl)piperazine-1-carbonyl)quinolin-3-yl)pentanoic acid], the inhibition constant (Ki) lay in the range of 2.1 to 20 nM.

Compound `COc1ccccc1C1CCN(C(=O)c2ccc3nc(-c4ccc(Cl)cc4)c(CCCCC(=O)O)cc3c2)CC1` [Compound 5BN, 5-(2-(4-chlorophenyl)-6-(4-(2-methoxyphenyl)piperidine-1-carbonyl)quinolin-3-yl)pentanoic acid] yielded a Ki of 2.1 to 20 nM.
